How the values were obtained:
[1] = system: Phlebotomus papatasi sand flies; assay: Sleeve bite protection assay on treated uniform fabric, sand flies; assay type: in vivo, Phlebotomus papatasi (Jerusalem, 1983); conditions: FRACU, 25-29 minutes
Method: (§1) Biological Evaluation: Bite protection assays were conducted with laboratory-reared 7-12 day old mosquitoes or sand flies. The species used throughout these studies are Aedes aegypti (Orlando, 1952) and Phlebotomus papatasi sand flies (Jerusalem, 1983). Females were pre-selected using either a hand draw box or a mechanical aspirator. An assay was conducted by wearing sewn sleeves made from clothing material. Treated specimens were assayed with untreated controls to correct for the bite resistance afforded by material construction and composition. The untreated control was tested at the beginning of the experiment, followed by successively higher candidate repellent concentrations on sleeves. Sleeves were sewn from a cut out single ply trapezoidal pattern (33.2 cm×21 cm×25.5 cm height) of material. […] Permethrin was 35:65cis: trans, 95.85% technical material. Experimental repellents were received as neat samples with <5% impurities. The treatment occurred by dissolution of repellent in suitable quantity of acetone to saturate the clothing, but minimizing excess solution. Excess solution was quantified and this amount of excess was then used to calculate the estimated amount of repellent applied to the material. […] The photoperiod was 12:12. The mosquito cages were approximately 60000 cm^3 and each contained 175 to 225 female mosquitoes. […] Cages for sand fly work were slightly smaller (15000 cm^3) and constructed of acrylic for filming purposes and with screens on the exterior edges to allow air flow through the system. About 20-40 sand flies were released in cages for each assay. Assays started when the sleeved arm was inserted through the sleeve into the cage. Normally the hand was protected by a glove, but there were situations (i.e. sand fly data presented here) when the ability of a repellent to protect the untreated hand was determined. The assay periods were 15 min for the mosquitoes and 25-30 minutes for sand flies. The insects were allowed to land, probe and possibly bloodfeed during this time. At the conclusion of the experiment, all insects were knocked down or aspirated and the percentage that bloodfed of the total female test population in the cage was recorded. The protect level was calculated by Abbott's formula as a percentage reduction in bites compared to the untreated fabric control sleeve. Specific conditions for bioassays are noted with corresponding data contained in the Tables.

Ae. aegypti mosquitoes = assay: Sleeve bite protection assay on treated uniform fabric, mosquitoes; assay type: in vivo, Aedes aegypti (Orlando, 1952)
Method: as §1

[2] = system: Mosquitoes, either Aedes aegypti (Liverpool) or Anopheles stephensi Liston; assay: K&D module in vitro bioassay: biting protection, knockdown and mortality; assay type: in vivo
Method: In vitro bioassays were conducted as described by Klun et. al. (Klun, J. A., et al., J. Med. Entomol., 40: 293-299 (2005)). Each test replicate consisted of 3 treatments: a control (EtOH); a standard (Deet, 4.54 nmol/μl); and an experimental compound (pyrethroid analogs, 4.54 nmol/ul). The 3 treatments were randomly assigned to consecutive cells in 2, 6-cell reservoirs connected in series to a single water-bath pump; thus, 4 replicates could be tested/run. Tests were performed in an Air Science USA hood, with an air movement velocity of approx. 110-120 ft./min., temperature of 25-27° C., and RH of 15-25%. A 6-celled reservoir was connected to and heated by a constant-temperature (38° C.) water circulator (Lauda E100, Wobser GMGH and Co., Konigshofell, Germany).
Prior to each test, the upper surface of each reservoir was coated with a thin layer of high-vacuum silicone grease (Dow Corning Corp., Midland, Mich.), and the cells then filled (approx. 6 ml. capacity) or topped-off with either: (1) expired human red blood cells suspended in citrate-phosphate-dextrose-adenine (CPDA) solution, not more than 1 month past expiration date, and to which 110 mg ATP/35 ml. blood-CPDA had been added on the day of testing; or (2) CPDA+ATP×^−3, usually made up or diluted to 10^−3 ATP on the day of testing. The filled cells were then covered with an Edicol collagen membrane (Devro, Sandy Run, S.C.) strip, and then with a just-treated (110 μl of 4.54 nmol/μl treatment or control solution) organdy cloth (G Street Fabrics, Rockville, Md.) strip. Mosquitoes used in tests were either Aedes aegypti_(Liverpool) or Anopheles stephensi_Liston. K&D modules containing 5 adult females/cell were placed over a Teflon separator atop each reservoir; the sliding floors opened allowing access to the treated organdy cloth and membrane-covered cell; and the number of mosquitoes biting (proboscis inserted through the cloth) and/or observed to be engorged within each cell at the end of a 3-5 min. exposure period was recorded. Mosquitoes were used only once in a test, and then frozen and discarded.
Only tests in which 3 or more females fed in the control cell were analyzed, as lower feeding rates are indicative of substandard feeding readiness of that group of mosquitoes.
[…] Data were collected to record knockdown in 6 minutes, one hour and 24 hours post exposure.

[3] = permethrin sleeve 0.135 mg/cm^2 + untreated strip, hand ungloved
[4] = ACU (50/50 NYCO) sleeve, glove on hand, 15 min, permethrin 0.118, transfluthrin 0.108, TL-I-107 0.107, TL-I-141 0.109, TL-I-105 0.107, TL-I-73 0.102 mg/cm^2
[5] = ACU (50/50 NYCO) sleeve, glove on hand, Abbott's formula vs untreated sleeve, concentrations as E1
[6] = ACU (50/50 NYCO) sleeve, glove on hand, concentrations as E1
[7] = ACU sleeve, No Glove on hand, permethrin 0.118, transfluthrin 0.108 mg/cm^2
[8] = ACU sleeve, stored one year then tested, concentrations as E1
[9] = ACU sleeve, treated specimens stored in refrigerator for one year then tested, concentrations as E1
[10] = FRACU sleeve, concentrations as E9
[11] = FRACU, permethrin sleeve 0.135 mg/cm^2 + untreated strip, Ultrathon (34.34% DEET) on hand
[12] = FRACU, permethrin sleeve 0.135 mg/cm^2 + untreated strip, hand gloved
[13] = untreated sleeve + TL-I-73 strip 0.163 mg/cm^2, hand ungloved
[14] = FRACU, untreated sleeve + treated strip, Ultrathon (34.34% DEET) on hand, TL-I-73 0.163, transfluthrin 0.158 mg/cm^2
[15] = FRACU, untreated sleeve + treated strip, hand gloved, TL-I-73 0.163, transfluthrin 0.158 mg/cm^2

CC1(C)C(C=C(Cl)Cl)C1C(=O)OCc1cccc(Oc2ccccc2)c1 (centres unmarked) [Permethrin]
Bite Protection (%) [1, 3]: −28.5%
Blood-fed # [1, 3]: 11 #
Fed (%) [1, 3]: 52.3%
Bite Protection (%) ([1]; permethrin sleeve 0.135 mg/cm^2 + untreated strip, hand ungloved, listed as permethrin): increased bites on the skin
Blood-fed # (Ae. aegypti mosquitoes; [4]): 0 #
Bite Protection (%) (Ae. aegypti mosquitoes; [5]): 100%
Fed (%) (Ae. aegypti mosquitoes; [6]): 0.0%
Blood-fed # (Ae. aegypti mosquitoes; [7]): 32 #
Fed (%) (Ae. aegypti mosquitoes; [7]): 18.1%
Bite Protection (%) (Ae. aegypti mosquitoes; [8]): 100%
Fed (%) (Ae. aegypti mosquitoes; [8]): 0.0%
Blood-fed # (Ae. aegypti mosquitoes; [9]): 0 #
Blood-fed # (Ae. aegypti mosquitoes; FRACU (65% Rayon, 10% Nylon, 25% Para-aramid) sleeve, permethrin 0.071, combination permethrin 0.031 + transfluthrin 0.038, transfluthrin 0.052 mg/cm^2): 24 #
Bite Protection (%) (Ae. aegypti mosquitoes; [10]): 86.7%
Fed (%) (Ae. aegypti mosquitoes; [10]): 10.5%
Bite Protection (%) (Ae. aegypti mosquitoes; [11]): 71.5%
Blood-fed # (Ae. aegypti mosquitoes; [11]): 15 #
Fed (%) (Ae. aegypti mosquitoes; [11]): 7.6%
Bite Protection (%) (Ae. aegypti mosquitoes; [12]): 94.0%
Blood-fed # (Ae. aegypti mosquitoes; [12]): 10 #
Fed (%) (Ae. aegypti mosquitoes; [12]): 4.9%

COCc1c(Cl)c(Cl)c(COC(=O)[C@@H]2[C@@H](C=C(C)C)C2(C)C)c(Cl)c1Cl [TL-I-73]
Knockdown 6 min (%) ([2]; 2.5 nM\cm^2, K&D module): 97%
Knockdown 1 hour (%) ([2]; 2.5 nM\cm^2, K&D module): 100%
Knockdown 24 hours (%) ([2]; 2.5 nM\cm^2, K&D module): 100%
Not feeding 3 minutes (%) ([2]; 2.5 nM\cm^2, K&D module): 100%
Knockdown 6 min (%) ([2]; 25 nM\cm^2, K&D module): 97%
Knockdown 1 hour (%) ([2]; 25 nM\cm^2, K&D module): 100%
Knockdown 24 hours (%) ([2]; 25 nM\cm^2, K&D module): 100%
Not feeding 3 minutes (%) ([2]; 25 nM\cm^2, K&D module): 100%
Bite Protection (%) [1, 13]: 21.8%
Blood-fed # [1, 13]: 7 #
Fed (%) [1, 13]: 31.8%
Blood-fed # (Ae. aegypti mosquitoes; [4]): 0 #
Bite Protection (%) (Ae. aegypti mosquitoes; [5]): 100%
Fed (%) (Ae. aegypti mosquitoes; [6]): 0.0%
Bite Protection (%) (Ae. aegypti mosquitoes; [8]): 100%
Fed (%) (Ae. aegypti mosquitoes; [8]): 0.0%
Blood-fed # (Ae. aegypti mosquitoes; [9]): 0 #
Blood-fed # (Ae. aegypti mosquitoes; FRACU, untreated sleeve + treated strip (20.5 cm × 2.6 cm) at wrist, hand gloved, TL-I-73 0.163, transfluthrin 0.158 mg/cm^2): 71 #
Blood-fed # (Ae. aegypti mosquitoes; FRACU, untreated sleeve + treated strip, Ultrathon 12 hr repellent (34.34% DEET) on hand, TL-I-73 0.163, transfluthrin 0.158 mg/cm^2): 85 #
Bite Protection (%) (Ae. aegypti mosquitoes; [14]): −45%
Fed (%) (Ae. aegypti mosquitoes; [14]): 38.8%
Bite Protection (%) (Ae. aegypti mosquitoes; [15]): 57.2%
Fed (%) (Ae. aegypti mosquitoes; [15]): 10.5%

CC(C)=C[C@@H]1[C@@H](C(=O)OCc2c(Cl)c(Cl)c(C)c(Cl)c2Cl)C1(C)C [TL-I-109]
Knockdown 6 min (%) ([2]; 2.5 nM\cm^2, K&D module): 4%
Knockdown 1 hour (%) ([2]; 2.5 nM\cm^2, K&D module): 35%
Knockdown 24 hours (%) ([2]; 2.5 nM\cm^2, K&D module): 6%
Not feeding 3 minutes (%) ([2]; 2.5 nM\cm^2, K&D module): 98%
Knockdown 6 min (%) ([2]; 25 nM\cm^2, K&D module): 4%
Knockdown 1 hour (%) ([2]; 25 nM\cm^2, K&D module): 58%
Knockdown 24 hours (%) ([2]; 25 nM\cm^2, K&D module): 37%
Not feeding 3 minutes (%) ([2]; 25 nM\cm^2, K&D module): 98%

Cc1c(Cl)c(Cl)c(COC(=O)C2C(C=C(Cl)Cl)C2(C)C)c(Cl)c1Cl (centres unmarked) [TL-I-111]
Knockdown 6 min (%) ([2]; 2.5 nM\cm^2, K&D module): 0%
Knockdown 1 hour (%) ([2]; 2.5 nM\cm^2, K&D module): 16%
Knockdown 24 hours (%) ([2]; 2.5 nM\cm^2, K&D module): 8%
Not feeding 3 minutes (%) ([2]; 2.5 nM\cm^2, K&D module): 90%
Knockdown 6 min (%) ([2]; 25 nM\cm^2, K&D module): 2%
Knockdown 1 hour (%) ([2]; 25 nM\cm^2, K&D module): 23%
Knockdown 24 hours (%) ([2]; 25 nM\cm^2, K&D module): 16%
Not feeding 3 minutes (%) ([2]; 25 nM\cm^2, K&D module): 92%

Cc1c(Cl)c(Cl)c(COC(=O)C2C(C=C(Cl)C(F)(F)F)C2(C)C)c(Cl)c1Cl (centres unmarked) [TL-I-113]
Knockdown 6 min (%) ([2]; 2.5 nM\cm^2, K&D module): 0%
Knockdown 1 hour (%) ([2]; 2.5 nM\cm^2, K&D module): 14%
Knockdown 24 hours (%) ([2]; 2.5 nM\cm^2, K&D module): 9%
Not feeding 3 minutes (%) ([2]; 2.5 nM\cm^2, K&D module): 76%
Knockdown 6 min (%) ([2]; 25 nM\cm^2, K&D module): 0%
Knockdown 1 hour (%) ([2]; 25 nM\cm^2, K&D module): 34%
Knockdown 24 hours (%) ([2]; 25 nM\cm^2, K&D module): 23%
Not feeding 3 minutes (%) ([2]; 25 nM\cm^2, K&D module): 92%

Cc1c(F)c(F)c(COC(=O)[C@@H]2[C@@H](C=C(Cl)Cl)C2(C)C)c(F)c1F [TL-I-141]
Knockdown 6 min (%) ([2]; 2.5 nM\cm^2, K&D module): 100%
Knockdown 24 hours (%) ([2]; 2.5 nM\cm^2, K&D module): 100%
Not feeding 3 minutes (%) ([2]; 2.5 nM\cm^2, K&D module): 100%
Knockdown 1 hour (%) ([2]; 2.5 nmol/cm^2, K&D module): 100%
Knockdown 6 min (%) ([2]; 25 nM\cm^2, K&D module): 100%
Knockdown 24 hours (%) ([2]; 25 nM\cm^2, K&D module): 100%
Not feeding 3 minutes (%) ([2]; 25 nM\cm^2, K&D module): 100%
Knockdown 1 hour (%) ([2]; 25 nmol/cm^2, K&D module): 100%
mortality at 0.0025 µM ([2]; Aedes aegypti, 24 h): 100%
mortality at 0.025 µM ([2]; Aedes aegypti, 48 h): 100%
Blood-fed # (Ae. aegypti mosquitoes; [4]): 0 #
Bite Protection (%) (Ae. aegypti mosquitoes; [5]): 100%
Fed (%) (Ae. aegypti mosquitoes; [6]): 0.0%
Bite Protection (%) (Ae. aegypti mosquitoes; [8]): 100%
Fed (%) (Ae. aegypti mosquitoes; [8]): 0.0%
Blood-fed # (Ae. aegypti mosquitoes; [9]): 0 #

CC1(C)C(C=C(Cl)Cl)C1C(=O)OC(C#N)c1cccc(Oc2ccccc2)c1 (centres unmarked) [a-cypermethrin, reference compound]
Knockdown 6 min (%) ([2]; 2.5 nM\cm^2, K&D module): 67%
Knockdown 1 hour (%) ([2]; 2.5 nM\cm^2, K&D module): 91%
Knockdown 24 hours (%) ([2]; 2.5 nM\cm^2, K&D module): 100%
Not feeding 3 minutes (%) ([2]; 2.5 nM\cm^2, K&D module): 81%
Knockdown 6 min (%) ([2]; 25 nM\cm^2, K&D module): 83%
Knockdown 1 hour (%) ([2]; 25 nM\cm^2, K&D module): 100%
Knockdown 24 hours (%) ([2]; 25 nM\cm^2, K&D module): 100%
Not feeding 3 minutes (%) ([2]; 25 nM\cm^2, K&D module): 98%

From patent US8822533B1, “Methods and compositions for repelling and/or killing insects” (The United States of America, as represented by the …, priority 2011, dated 2014)
